Data taken from PubChem BioAssay (NCI).
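Cells were grown in 96-well plates and exposed to each compound for 48 hours at five concentrations; endpoints were interpolated linearly between bracketing concentrations, or set to the highest concentration if not reached. TGI marks complete inhibition of growth.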

What was measured:
Assay in all cases: NCI anticancer screen, dose series, 48 h
NCI-H23 lung = system: NCI-H23 lung
NCI-H522 lung = system: NCI-H522 lung
EKVX NSCLC = system: EKVX NSCLC
NCI/ADR-RES ovarian = system: NCI/ADR-RES ovarian
UO-31 renal = system: UO-31 renal
HOP-62 NSCLC = system: HOP-62 NSCLC
T-47D breast = system: T-47D breast
ACHN renal = system: ACHN renal
NCI-H226 lung = system: NCI-H226 lung
SW-620 colon = system: SW-620 colon
MDA-N = system: MDA-N
KM12 colon = system: KM12 colon
SK-MEL-5 melanoma = system: SK-MEL-5 melanoma
MDA-MB-435 = system: MDA-MB-435
UACC-257 melanoma = system: UACC-257 melanoma
CCRF-CEM leukemia = system: CCRF-CEM leukemia
BT-549 breast = system: BT-549 breast
HCC-2998 colon = system: HCC-2998 colon
OVCAR-4 ovarian = system: OVCAR-4 ovarian
SR leukemia = system: SR leukemia
NCI-H460 lung = system: NCI-H460 lung
OVCAR-3 ovarian = system: OVCAR-3 ovarian
SK-MEL-28 melanoma = system: SK-MEL-28 melanoma
786-0 renal = system: 786-0 renal
MALME-3M melanoma = system: MALME-3M melanoma
CAKI-1 renal = system: CAKI-1 renal
MOLT-4 leukemia = system: MOLT-4 leukemia
MDA-MB-231 breast = system: MDA-MB-231 breast
LOX IMVI melanoma = system: LOX IMVI melanoma
HCT-15 colon = system: HCT-15 colon
SNB-75 CNS = system: SNB-75 CNS
OVCAR-8 ovarian = system: OVCAR-8 ovarian
HOP-92 NSCLC = system: HOP-92 NSCLC
SN12C renal = system: SN12C renal
A498 renal = system: A498 renal
IGROV1 ovarian = system: IGROV1 ovarian
K-562 leukemia = system: K-562 leukemia
HS 578T breast = system: HS 578T breast
DU-145 prostate = system: DU-145 prostate
PC-3 prostate = system: PC-3 prostate
SNB-19 CNS = system: SNB-19 CNS
COLO 205 colon = system: COLO 205 colon
HCT-116 colon = system: HCT-116 colon
M14 melanoma = system: M14 melanoma
SF-268 CNS = system: SF-268 CNS
U251 CNS = system: U251 CNS
A549 NSCLC = system: A549 NSCLC
HL-60(TB) leukemia = system: HL-60(TB) leukemia
OVCAR-5 ovarian = system: OVCAR-5 ovarian
RPMI-8226 leukemia = system: RPMI-8226 leukemia
HT29 colon = system: HT29 colon
MCF7 breast = system: MCF7 breast
UACC-62 melanoma = system: UACC-62 melanoma
SK-OV-3 ovarian = system: SK-OV-3 ovarian
SK-MEL-2 melanoma = system: SK-MEL-2 melanoma
SF-295 CNS = system: SF-295 CNS
SF-539 CNS = system: SF-539 CNS
TK-10 renal = system: TK-10 renal
RXF 393 renal = system: RXF 393 renal
XF 498 CNS = system: XF 498 CNS
DMS 273 small cell lung = system: DMS 273 small cell lung
DMS 114 small cell lung = system: DMS 114 small cell lung
DLD-1 colon = system: DLD-1 colon
SNB-78 CNS = system: SNB-78 CNS
M19-MEL melanoma = system: M19-MEL melanoma
LXFL 529 NSCLC = system: LXFL 529 NSCLC
KM20L2 colon = system: KM20L2 colon

Measured: TGI

COc1ccc(/C=C2\CCCC(CN(C)C)C2=O)cc1 (stereo not drawn)
16.6 µM: HCC-2998 colon
2.56 µM: MOLT-4 leukemia
2.75 µM: KM12 colon
8.61 µM: MDA-MB-231 breast
4.13 µM: UACC-62 melanoma
4.45 µM: COLO 205 colon
1.7 µM: HCT-15 colon
8.96 µM: UACC-257 melanoma
24.8 µM: EKVX NSCLC
6.96 µM: MDA-MB-435
7.72 µM: T-47D breast
3.19 µM: HCT-116 colon
7.51 µM: IGROV1 ovarian
2.39 µM: SW-620 colon
33.5 µM: NCI-H226 lung
> 100 µM: CCRF-CEM leukemia
30.2 µM: DU-145 prostate
5.86 µM: ACHN renal
8.5 µM: MDA-N
23.2 µM: OVCAR-5 ovarian
3.88 µM: U251 CNS
28.8 µM: SK-MEL-5 melanoma
4.21 µM: M14 melanoma
18 µM: SNB-19 CNS
2.42 µM: SR leukemia
13.9 µM: NCI-H23 lung
2.85 µM: NCI-H522 lung
18.4 µM: PC-3 prostate
48.4 µM: NCI-H460 lung
36.8 µM: SF-295 CNS
7.12 µM: SN12C renal
4.62 µM: HL-60(TB) leukemia
3.15 µM: CAKI-1 renal
9.45 µM: TK-10 renal
4 µM: LOX IMVI melanoma
8.99 µM: HOP-92 NSCLC
30.4 µM: A498 renal
3.9 µM: BT-549 breast
8.57 µM: UO-31 renal
23.4 µM: SK-OV-3 ovarian
3.47 µM: 786-0 renal | HT29 colon
21.6 µM: SNB-75 CNS
10.9 µM: HS 578T breast
33.9 µM: A549 NSCLC
6.56 µM: NCI/ADR-RES ovarian
0.433 µM: RPMI-8226 leukemia
26.4 µM: OVCAR-8 ovarian
35.7 µM: HOP-62 NSCLC
6.95 µM: MALME-3M melanoma
6.79 µM: K-562 leukemia
11 µM: SF-268 CNS | SK-MEL-2 melanoma
4.99 µM: OVCAR-3 ovarian
3.77 µM: SK-MEL-28 melanoma
1.45 µM: MCF7 breast
31.1 µM: SF-539 CNS
4.43 µM: OVCAR-4 ovarian

Cc1ccc(NC(=O)c2cc3cc(N=Nc4ccc(Br)cc4)ccc3oc2=O)cc1
not listed: EKVX NSCLC | NCI/ADR-RES ovarian | UO-31 renal | HOP-62 NSCLC | T-47D breast | MDA-N | MDA-MB-435 | CCRF-CEM leukemia | BT-549 breast | OVCAR-3 ovarian | MDA-MB-231 breast | OVCAR-8 ovarian | IGROV1 ovarian | K-562 leukemia | HS 578T breast | DU-145 prostate | PC-3 prostate | M14 melanoma | MCF7 breast | UACC-62 melanoma | SF-539 CNS | M19-MEL melanoma | LXFL 529 NSCLC | KM20L2 colon
> 100 µM: all other assays above

CCOc1ccccc1NC(=O)CC1C(=O)Nc2ccccc2S1=O (stereo not drawn)
39.5 µM: MOLT-4 leukemia
46.1 µM: RPMI-8226 leukemia
not listed: NCI/ADR-RES ovarian | HOP-62 NSCLC | T-47D breast | MDA-N | KM12 colon | MDA-MB-435 | BT-549 breast | MDA-MB-231 breast | HS 578T breast | DU-145 prostate | PC-3 prostate | COLO 205 colon | MCF7 breast | SK-OV-3 ovarian
> 100 µM: all other assays above

O=C1OC[C@@H]2[C@@H](O)CCCCCN12
not listed: NCI-H23 lung | 786-0 renal | MALME-3M melanoma | M14 melanoma | SF-268 CNS | XF 498 CNS | DMS 273 small cell lung | DMS 114 small cell lung | DLD-1 colon | SNB-78 CNS | M19-MEL melanoma | LXFL 529 NSCLC | KM20L2 colon
> 100 µM: all other assays above
